Patent publication US20060287320A1, “Preparation of thioarabinofuranosyl compounds and use thereof” (Southern Research Institute, priority 1998, published 2006)

Tests used:
[1] = Phosphorylation in cell-free CEM extracts, araC-resistant; format: biochemical
Procedure: (§1) The number in parentheses is the number of experiments performed. […] At various times after the initiation of the experiment, an aliquot of each reaction volume was removed and placed on DE-81 filters. The filters were washed with 1 mM ammonium formate and ethanol, and the amount of radioactivity on each filter was determined. […] This assay was verified by HPLC.

SK-MEL 28 Melanoma = assay: In vitro IC50, 72 hour exposure, SRB assay; format: cell-based; details: Homo sapiens, read-out: IC50 Molar Values
Procedure: (§2) EXAMPLE 3 The following in vitro tests were carried out.
(§3) The above tests were carried out with a 72 hour exposure to the compound using Natural Red assay for all cell lines except SK-MEL 28 which was done with SRB assay.

[2] = Phosphorylation in cell-free CEM extracts, wild-type; format: biochemical; details: wild-type CEM cell extract; 1 μm substrate
Procedure: as §1

SC Colon 36 Tumor = assay: Response of SC Colon 36 Tumor to Treatment; format: in vivo; details: 8 Mg/Kg IP, Q 4H × 3 day 9-17
Procedure: (§4) The following in vivo tests were carried out to illustrate the effectiveness of the compounds of the present invention.

[3] = molecular target: T1, dCyd Kinase Activity Isolated from Molt-4 Cells (Homo sapiens, UniProt P27707); assay: Substrate characteristics with dCyd kinase activity isolated from Molt-4 cells; format: biochemical; details: dCyd kinase activity from Molt-4 cells
T1 construct: endogenous in cells; host or cells: Molt-4 cells (enzyme purified from the cells)
T1 sequence (P27707 whole entry): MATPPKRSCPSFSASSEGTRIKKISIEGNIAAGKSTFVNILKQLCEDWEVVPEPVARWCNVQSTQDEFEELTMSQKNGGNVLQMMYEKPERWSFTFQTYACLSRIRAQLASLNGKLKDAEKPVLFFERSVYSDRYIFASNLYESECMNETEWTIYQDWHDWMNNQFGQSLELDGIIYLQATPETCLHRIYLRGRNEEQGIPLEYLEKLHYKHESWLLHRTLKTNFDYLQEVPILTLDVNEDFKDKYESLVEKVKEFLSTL
Procedure: Each assay was done in duplicate and the kinetic constants were determined from linear double-reciprocal plots of 1/velocity versus 1/concentration of the substrate. The best line was determined by linear regression from at least 5 datum points, and the Km and Vmax were determined from the x and y intercepts.

araC-resistant CEM cells [4] = assay: Inhibition of CEM cell growth, araC-resistant
Procedure: (§7) CEM cells were incubated with various concentrations of each compound and the effect on. cell numbers was determined using a Coulter Counter. The IC50 was determined from a plot of the percent of control growth versus drug concentration. The data presented are the mean and standard deviation from 3 separate experiments.

CEM cells (wild-type) [5] = assay: Inhibition of CEM cell growth, wild-type; details: Homo sapiens, CCRF-CEM, read-out: IC50 (nM) Wild-type
Procedure: as §7

CEM cells [6] = assay: Complete metabolism of dCyd, T-dCyd, araC and T-araC in CEM cells; format: cell-based; details: 100 nM, incubation 24 hours
Procedure: The complete metabolism of each compound was determined: The medium was analyzed for the original compound, its deaminated form using reverse phase HPLC, and H20; the acid-soluble extract was analyzed by SAX HPLC for phosphorylated metabolites; and the incorporation of radioactivity into acid-precipitable material (DNA) was determined.

araC-resistant CEM cells [7] = assay: Metabolism of dCyd and analogs in araC-resistant CEM cells; format: cell-based; details: 100 nM, incubation time 1 hour
Procedure: (§5) The radioactivity in the 5′-triphosphate peak and the incorporation of radioactivity in the acid-insoluble fraction (DNA) was determined.

[8] = tested on: RNA synthesis in CEM cells; assay: Effect on RNA synthesis ([3H]Urd incorporation) in CEM cells; format: cell-based; details: 750 nM, average of two experiments
Procedure: (§6) Radiolabeled precursors of DNA [^3H]dThd, RNA ([^3H]Urd), or protein ([^3H]leucine) were added to each treatment 30 minutes after the addition of each compound. Samples were taken 1, 2, 3 and 4 hours after the addition of radiolabeled precursors, and the incorporation of radioactivity into RNA, DNA, or protein were determined as described (Parker et al, Biochem. Pharmacol. 55: 1673-1681, 1998). Each number represents the average of two experiments.

ZR-75-1 Mammary = assay: In vitro IC50, 72 hour exposure, Natural Red assay; format: cell-based; details: Homo sapiens, read-out: IC50 Molar Values
Procedure: as §2, §3

PC-3 Prostate = assay: In vitro IC50, 72 hour exposure, Natural Red assay; format: cell-based; details: read-out: IC50 Molar Values
Procedure: as §2, §3

DLD-1 Colon = assay: In vitro IC50, 72 hour exposure, Natural Red assay; format: cell-based; details: Homo sapiens, read-out: IC50 Molar Values
Procedure: as §2, §3

LOX IMV1 Melanoma = assay: In vitro IC50, 72 hour exposure, Natural Red assay; format: cell-based; details: read-out: IC50 Molar Values
Procedure: as §2, §3

CAK1-1 Renal = assay: In vitro IC50, 72 hour exposure, Natural Red assay; format: cell-based; details: read-out: IC50 Molar Values
Procedure: as §2, §3

NC1-H23 Lung = assay: In vitro IC50, 72 hour exposure, Natural Red assay; format: cell-based; details: read-out: IC50 Molar Values
Procedure: as §2, §3

SNB-7 (CNS) = assay: In vitro IC50, 72 hour exposure, Natural Red assay; format: cell-based; details: Homo sapiens, read-out: IC50 Molar Values
Procedure: as §2, §3

CEM cells [9] = assay: Effect of F-dUrd on metabolism (deamination) in CEM cells; format: cell-based; details: 100 nM, incubation time 24 hours
Procedure: The complete metabolism of each compound was determined as described in the legend to Table 12, and the percent of deaminated metabolites for each compound was determined.

CEM cells (wild-type) [10] = assay: Metabolism of dCyd and analogs in wild-type CEM cells; format: cell-based; details: WT CEM cells; 100 nM; incubation time 1 hour
Procedure: as §5

[11] = tested on: DNA synthesis in CEM cells; assay: Effect on DNA synthesis ([3H]dThd incorporation) in CEM cells; format: cell-based; details: Homo sapiens, CCRF-CEM, 750 nM, average of two experiments, read-out: DNA synthesis, Percent of control
Procedure: as §6

[12] = tested on: protein synthesis in CEM cells; assay: Effect on protein synthesis ([3H]leucine incorporation) in CEM cells; format: cell-based; details: Homo sapiens, CCRF-CEM, 750 nM, average of two experiments, read-out: protein synthesis, Percent of control
Procedure: as §6

SC HCT-116 Colon Tumor = assay: Response of SC HCT-116 Colon Tumor to Treatment; format: in vivo; details: Q 4H × 3 day 6-14
Procedure: as §4

SC CAKI-1 Renal Tumor = assay: Response of SC CAKI-1 Renal Tumor to Treatment; format: in vivo; details: Q 4H × 3 day 7-15
Procedure: as §4

Nc1ccn([C@@H]2S[C@H](CO)[C@@H](O)[C@@H]2O)c(=O)n1 [T-araC, 1-(4-Thio-β-D-arabinofuranosyl) cytosine]
Phosphorylation, araC-resistant CEM cells ([1]; araC-resistant CEM cell extract, 1 μm substrate): 0.011 pmoles/mg protein/minute | Percent of wild-type ([1]; phosphorylation in araC-resistant vs wild-type CEM extract): 1.3% of wild-type | IC50 (SK-MEL 28 Melanoma): 7 µM | Phosphorylation, Wild-type [2]: 0.83 pmoles/mg protein/minute | Days Delay (T − C) (SC Colon 36 Tumor): >38.5 days | Days to 2 Doubling (SC Colon 36 Tumor): >49.0 days | Non-Specific Deaths/Total (SC Colon 36 Tumor): 0/5 | Tumor Free Surv/Total (SC Colon 36 Tumor): 4/5 | Tumor Regression Number of Complete (SC Colon 36 Tumor): 4 | Tumor Regression Number of Partial (SC Colon 36 Tumor): 0 | Relative Vmax [3]: 0.46 | IC50 (araC-resistant CEM cells [4]; Homo sapiens, CCRF-CEM, read-out: IC50 (nM) araC-resistant): 125 ± 84 nM | Resistant/WT (araC-resistant CEM cells [4]; ratio of IC50 araC-resistant / wild-type CEM cells): 5 | IC50 (CEM cells (wild-type) [5]): 24 ± 9 nM | DNA (percent of total) (CEM cells [6]): 0.3% of total | Original Compound (percent of total) (CEM cells [6]): 96% of total | DNA (araC-resistant CEM cells [7]): 0.0025 pmoles/10^6 cells | DNA (percent of WT) (araC-resistant CEM cells [7]): 45% of WT | Total (araC-resistant CEM cells [7]): 0.0535 pmoles/10^6 cells | Total (percent of WT) (araC-resistant CEM cells [7]): 26% of WT | RNA synthesis, Percent of control [8]: 87% of control | IC50 (ZR-75-1 Mammary): 3 µM | IC50 (PC-3 Prostate): 8 µM | IC50 (DLD-1 Colon): 7 µM | IC50 (LOX IMV1 Melanoma): 7 µM | IC50 (CAK1-1 Renal): 3 µM | IC50 (NC1-H23 Lung): 5 µM | IC50 (SNB-7 (CNS)): 1 µM | Percent Deamination (CEM cells [9]; F-dUrd 0 μM): 0% | Percent Deamination (CEM cells [9]; F-dUrd 10 μM): 0% | DNA (CEM cells (wild-type) [10]): 0.0056 pmoles/10^6 cells | Total (CEM cells (wild-type) [10]): 0.2076 pmoles/10^6 cells | activity at 0.75 µM [11]: 16% | activity at 0.75 µM [12]: 72% | Days Delay (T − C) (SC HCT-116 Colon Tumor; 13.3 Mg/Kg IP): >43.1 days | Days to 2 Doubling (SC HCT-116 Colon Tumor; 13.3 Mg/Kg IP): >52.0 days | Non-Specific Deaths/Total (SC HCT-116 Colon Tumor; 13.3 Mg/Kg IP): 0/6 | Tumor Free Surv/Total (SC HCT-116 Colon Tumor; 13.3 Mg/Kg IP): 5/6 | Tumor Regression Duration Med (SC HCT-116 Colon Tumor; 13.3 Mg/Kg IP): 23.6 days | Tumor Regression Duration Range (Days) (SC HCT-116 Colon Tumor; 13.3 Mg/Kg IP): 24-24 Days | Tumor Regression Number of Complete (SC HCT-116 Colon Tumor; 13.3 Mg/Kg IP): 6 | Tumor Regression Number of Partial (SC HCT-116 Colon Tumor; 13.3 Mg/Kg IP): 0 | Days Delay (T − C) (SC HCT-116 Colon Tumor; 20 Mg/Kg IP): >43.1 days | Days to 2 Doubling (SC HCT-116 Colon Tumor; 20 Mg/Kg IP): >52.0 days | Non-Specific Deaths/Total (SC HCT-116 Colon Tumor; 20 Mg/Kg IP): 0/6 | Tumor Free Surv/Total (SC HCT-116 Colon Tumor; 20 Mg/Kg IP): 6/6 | Tumor Regression Number of Complete (SC HCT-116 Colon Tumor; 20 Mg/Kg IP): 6 | Tumor Regression Number of Partial (SC HCT-116 Colon Tumor; 20 Mg/Kg IP): 0 | Days Delay (T − C) (SC CAKI-1 Renal Tumor; 8 Mg/Kg IP): 41.2 days | Days to 3 Doubling (SC CAKI-1 Renal Tumor; 8 Mg/Kg IP): 50.7 days | Non-Specific Deaths/Total (SC CAKI-1 Renal Tumor; 8 Mg/Kg IP): 0/6 | Tumor Free Surv/Total (SC CAKI-1 Renal Tumor; 8 Mg/Kg IP): 0/6 | Tumor Regression Duration Med (SC CAKI-1 Renal Tumor; 8 Mg/Kg IP): 12.7 days | Tumor Regression Duration Range (SC CAKI-1 Renal Tumor; 8 Mg/Kg IP): 9 to 18 days | Tumor Regression Number of Complete (SC CAKI-1 Renal Tumor; 8 Mg/Kg IP): 4 | Tumor Regression Number of Partial (SC CAKI-1 Renal Tumor; 8 Mg/Kg IP): 1 | Days Delay (T − C) (SC CAKI-1 Renal Tumor; 16 Mg/Kg IP): 50.3 days | Days to 3 Doubling (SC CAKI-1 Renal Tumor; 16 Mg/Kg IP): 59.8 days | Non-Specific Deaths/Total (SC CAKI-1 Renal Tumor; 16 Mg/Kg IP): 1/6 | Tumor Free Surv/Total (SC CAKI-1 Renal Tumor; 16 Mg/Kg IP): 0/6 | Tumor Regression Duration Med (SC CAKI-1 Renal Tumor; 16 Mg/Kg IP): 26.9 days | Tumor Regression Duration Range (SC CAKI-1 Renal Tumor; 16 Mg/Kg IP): 16 to 48 days | Tumor Regression Number of Complete (SC CAKI-1 Renal Tumor; 16 Mg/Kg IP): 5 | Tumor Regression Number of Partial (SC CAKI-1 Renal Tumor; 16 Mg/Kg IP): 0
